Laboratory results reported in PubChem BioAssay AID248 (DTP/NCI, 2004).
Several values for one entry are separate records, joined by “and”; a condition that tells them apart may be missing. Equal entries are not always repeated. Inconclusive results and toxic doses are left out. Rule as the data show it: active = T/C of 150% or more; inactive = T/C below 125%.

Tested on: L1210 leukemia ip in BDF1 mice, survival T/C
Assay: NCI In Vivo Anticancer Drug Screen. Data for tumor model L1210 Leukemia (intraperitoneal) in B6D2F1 (BDF1) mice
Settings: endpoint: mean survival time, higher = longer survival
Outline: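 Read-out is survival time, reported as the treated-group measurement over the vehicle-control measurement.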

[1] = dose: 100.0 mg/kg/injection, schedule: Q04DX003 (ip), vehicle: saline
[2] = dose: 200.0 mg/kg/injection, schedule: Q04DX003 (ip), vehicle: saline
[3] = dose: 400.0 mg/kg/injection, schedule: Q04DX003 (ip), vehicle: saline
[4] = dose: 100.0 mg/kg/injection, schedule: Q01DX009 (ip), vehicle: saline with Tween-80
[5] = dose: 100.0 mg/kg/injection, schedule: Q04DX003 (ip), vehicle: saline with Tween-80
[6] = dose: 100.0 mg/kg/injection, schedule: Q01DX001 (ip), vehicle: carboxymethylcellulose (CMC)
[7] = dose: 200.0 mg/kg/injection, schedule: Q01DX001 (ip), vehicle: carboxymethylcellulose (CMC)
[8] = dose: 400.0 mg/kg/injection, schedule: Q01DX001 (ip), vehicle: carboxymethylcellulose (CMC)
[9] = dose: 100.0 mg/kg/injection, schedule: Q01DX009 (ip), vehicle: Klucel (hydroxypropylcellulose) (HPC)
[10] = dose: 200.0 mg/kg/injection, schedule: Q01DX009 (ip), vehicle: Klucel (hydroxypropylcellulose) (HPC)
[11] = dose: 400.0 mg/kg/injection, schedule: Q01DX009 (ip), vehicle: Klucel (hydroxypropylcellulose) (HPC)
[12] = dose: 50.0 mg/kg/injection, schedule: Q01DX001 (ip), vehicle: saline
[13] = dose: 100.0 mg/kg/injection, schedule: Q01DX001 (ip), vehicle: saline
[14] = dose: 200.0 mg/kg/injection, schedule: Q01DX001 (ip), vehicle: saline

Measured: T/C

CCCCN(CCCC)CCCOc1cc(C)ccc1C(C)C
inactive: dose: 3.0 mg/kg/injection, schedule: Q04DX003 (ip), vehicle: saline 97 % of control | dose: 6.0 mg/kg/injection, schedule: Q04DX003 (ip), vehicle: saline 105 % of control and 106 % of control | dose: 12.0 mg/kg/injection, schedule: Q01DX009 (ip), vehicle: Klucel (hydroxypropylcellulose) (HPC) 102 % of control | dose: 12.0 mg/kg/injection, schedule: Q04DX003 (ip), vehicle: saline 95 % of control and 107 % of control | dose: 25.0 mg/kg/injection, schedule: Q01DX009 (ip), vehicle: Klucel (hydroxypropylcellulose) (HPC) 93 % of control | dose: 25.0 mg/kg/injection, schedule: Q04DX003 (ip), vehicle: saline 97 % of control and 98 % of control and 105 % of control | dose: 50.0 mg/kg/injection, schedule: Q01DX009 (ip), vehicle: Klucel (hydroxypropylcellulose) (HPC) 109 % of control | [1] 109 % of control

CCCCCCCCCOC(=O)NC1c2ccccc2Oc2ccccc21
inactive: dose: 100.0 mg/kg/injection, schedule: Q01DX009 (ip), vehicle: acetone 93 % of control | [1] 98 % of control | [2] 98 % of control | [3] 88 % of control

COc1ccccc1C(=O)N/N=C/c1cccc2ccccc12
inactive: [4] 114 % of control | [5] 103 % of control | dose: 200.0 mg/kg/injection, schedule: Q01DX009 (ip), vehicle: saline with Tween-80 105 % of control | dose: 200.0 mg/kg/injection, schedule: Q04DX003 (ip), vehicle: saline with Tween-80 96 % of control | dose: 400.0 mg/kg/injection, schedule: Q01DX009 (ip), vehicle: saline with Tween-80 107 % of control | dose: 400.0 mg/kg/injection, schedule: Q04DX003 (ip), vehicle: saline with Tween-80 94 % of control

COc1ccc(CC[n+]2ccc(C#N)c(C(C)=O)c2)cc1OC
inactive: dose: 75.0 mg/kg/injection, schedule: Q01DX001 (ip), vehicle: carboxymethylcellulose (CMC) 106 % of control | dose: 150.0 mg/kg/injection, schedule: Q01DX001 (ip), vehicle: carboxymethylcellulose (CMC) 105 % of control

CCOC(=S)SC/C=C/CSC(=S)OCC
inactive: dose: 100.0 mg/kg/injection, schedule: Q04DX002 (ip), vehicle: saline with Tween-80 97 % of control | dose: 200.0 mg/kg/injection, schedule: Q04DX002 (ip), vehicle: saline with Tween-80 103 % of control | dose: 400.0 mg/kg/injection, schedule: Q04DX002 (ip), vehicle: saline with Tween-80 107 % of control

C/C(CC(=O)N1CCCCC1)=N\NC(N)=S
inactive: [6] 97 % of control | [7] 103 % of control | [8] 94 % of control

Fc1cc(N(CCCl)CCCl)ccc1CN1CCCN(Cc2ccc(N(CCCl)CCCl)cc2F)C1c1ccc(N(CCCl)CCCl)cc1F
inactive: dose: 50.0 mg/kg/injection, schedule: Q01DX001 (ip), vehicle: carboxymethylcellulose (CMC) 100 % of control | [6] 96 % of control | [7] 102 % of control | [8] 94 % of control

O=C(O)c1cccc(OCCCOc2ccccc2)c1
inactive: [9] 92 % of control | [10] 90 % of control | [11] 95 % of control

C#CCCCN1CCC2(CC1)C(=O)N(C(=O)N(C)C)CN2c1ccccc1
inactive: dose: 25.0 mg/kg/injection, schedule: Q04DX003 (ip), vehicle: saline with Tween-80 105 % of control | dose: 50.0 mg/kg/injection, schedule: Q04DX003 (ip), vehicle: saline with Tween-80 103 % of control | [5] 88 % of control and 92 % of control

CCSc1ncc(F)c(=O)[nH]1
inactive: [12] 113 % of control | [13] 101 % of control | [14] 98 % of control

O=C(N/N=C\c1ccc(O)cc1O)c1ccco1
inactive: dose: 100.0 mg/kg/injection, schedule: Q01DX001 (ip), vehicle: other 90 % of control | dose: 200.0 mg/kg/injection, schedule: Q01DX001 (ip), vehicle: other 93 % of control | dose: 400.0 mg/kg/injection, schedule: Q01DX001 (ip), vehicle: other 96 % of control

CCc1ccccc1N/N=C(\Cl)C(C)=O
inactive: dose: 6.25 mg/kg/injection, schedule: Q01DX009 (ip), vehicle: saline 106 % of control | dose: 12.5 mg/kg/injection, schedule: Q01DX009 (ip), vehicle: saline 106 % of control | dose: 25.0 mg/kg/injection, schedule: Q01DX009 (ip), vehicle: saline 95 % of control

CCCCCCCCCCP(=O)(CCCCCCCCCC)C(O)C(Cl)(Cl)Cl (stereo unspecified)
inactive: dose: 100.0 mg/kg/injection, schedule: Q01DX001 (ip), vehicle: saline with Tween-80 91 % of control | dose: 200.0 mg/kg/injection, schedule: Q01DX001 (ip), vehicle: saline with Tween-80 93 % of control | dose: 400.0 mg/kg/injection, schedule: Q01DX001 (ip), vehicle: saline with Tween-80 94 % of control

CCCCCCCCCCCCSC1=NCCN1
inactive: dose: 25.0 mg/kg/injection, schedule: Q04DX003 (ip), vehicle: Klucel (hydroxypropylcellulose) (HPC) 100 % of control | dose: 45.0 mg/kg/injection, schedule: Q04DX003 (ip), vehicle: Klucel (hydroxypropylcellulose) (HPC) 95 % of control | dose: 87.5 mg/kg/injection, schedule: Q04DX003 (ip), vehicle: Klucel (hydroxypropylcellulose) (HPC) 100 % of control | dose: 88.0 mg/kg/injection, schedule: Q04DX003 (ip), vehicle: Klucel (hydroxypropylcellulose) (HPC) 103 % of control

COc1ccc(Cl)cc1NC(=O)c1cccc([N+](=O)[O-])c1
inactive: [9] 98 % of control | [10] 98 % of control | [11] 102 % of control

COC1Nc2cc3ccccc3cc2-c2ccccc21 (stereo unspecified)
inactive: [6] 97 % of control | [7] 97 % of control

Cc1ccc(Nc2nc(N)nc(N)c2N)cc1Cl
inactive: dose: 100.0 mg/kg/injection, schedule: Q01DX Z (ip), vehicle: saline 104 % of control

CCOC(=O)CC(CC(=O)OCC)NC(=O)c1ccc(N(C)Cc2ccccc2)cc1
inactive: [6] 107 % of control | [7] 108 % of control | [8] 105 % of control

CCCCSc1ncnc2c1ncn2C1CCCCO1 (stereo unspecified)
inactive: [12] 102 % of control | [13] 104 % of control | dose: 100.0 mg/kg/injection, schedule: Q01DX009 (ip), vehicle: saline sonified 94 % of control | dose: 100.0 mg/kg/injection, schedule: Q04DX003 (ip), vehicle: Klucel (hydroxypropylcellulose) (HPC) 103 % of control | [14] 102 % of control | dose: 200.0 mg/kg/injection, schedule: Q01DX009 (ip), vehicle: saline sonified 90 % of control | dose: 200.0 mg/kg/injection, schedule: Q04DX003 (ip), vehicle: Klucel (hydroxypropylcellulose) (HPC) 113 % of control | dose: 400.0 mg/kg/injection, schedule: Q01DX001 (ip), vehicle: saline 113 % of control | dose: 400.0 mg/kg/injection, schedule: Q01DX009 (ip), vehicle: saline sonified 113 % of control | dose: 400.0 mg/kg/injection, schedule: Q04DX003 (ip), vehicle: Klucel (hydroxypropylcellulose) (HPC) 124 % of control

Cc1[nH]c(=O)ncc1CCOCc1ccccc1
inactive: [6] 104 % of control | [7] 109 % of control | [8] 104 % of control

COc1ccc(C)cc1NC(=O)c1ccc(Cl)cc1Cl
inactive: [9] 98 % of control | [10] 101 % of control | [11] 97 % of control

CCCCCCCCCCCCCCCCCC[N+]1(C)CCC1C (stereo unspecified)
inactive: dose: 0.78 mg/kg/injection, schedule: Q04DX003 (ip), vehicle: saline 102 % of control | dose: 1.56 mg/kg/injection, schedule: Q04DX003 (ip), vehicle: saline 101 % of control

CC/C(=N/N=C(N)N)c1ccc(F)cc1
inactive: dose: 15.0 mg/kg/injection, schedule: Q01DX Z (oral), vehicle: carboxymethylcellulose (CMC) 104 % of control | dose: 30.0 mg/kg/injection, schedule: Q01DX Z (oral), vehicle: carboxymethylcellulose (CMC) 101 % of control | dose: 60.0 mg/kg/injection, schedule: Q01DX Z (oral), vehicle: carboxymethylcellulose (CMC) 98 % of control

C[Si](C)(C)n1ccnc1
inactive: [1] 100 % of control | [2] 105 % of control | [3] 94 % of control

O=c1oc(-c2ccc(Cl)cc2)nc2cc(Cl)ccc12
inactive: dose: 25.0 mg/kg/injection, schedule: Q01DX009 (ip), vehicle: saline with Tween-80 93 % of control | dose: 50.0 mg/kg/injection, schedule: Q01DX009 (ip), vehicle: saline with Tween-80 97 % of control | [4] 93 % of control

CN(C)C(=C1C=CC=C1)N(C)C
inactive: dose: 20.0 mg/kg/injection, schedule: Q04DX003 (ip), vehicle: saline 101 % of control | dose: 40.0 mg/kg/injection, schedule: Q04DX003 (ip), vehicle: saline 96 % of control | dose: 80.0 mg/kg/injection, schedule: Q04DX003 (ip), vehicle: saline 92 % of control
